{
  "source": "patent US8802597B2",
  "about": "“Herbicidal pyrimidines” (E I du Pont de Nemours and Company, priority 2003, dated 2014)",
  "assay_in_all_cases": "Test G pre/postemergence",
  "assay_type_in_all_cases": "in vivo",
  "details_in_all_cases": "Preemergence",
  "key": {"[1]": {"system": "common chickweed (Stellaria media)", "how_it_was_run": "(§1)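 Seeds or nutlets were planted and treated preemergence with compound formulated in a non-phytotoxic solvent mixture containing surfactant; plants 2 to 18 cm tall (1- to 4-leaf stage) received postemergence sprays of the same formulation. After 12 to 21 days in a greenhouse, injury was rated visually against untreated controls on a 0–100 scale (100 = complete control).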"}, "[2]": {"system": "Surinam grass (Brachiaria decumbens)", "how_it_was_run": "as §1"}, "[3]": {"system": "downy bromegrass (Bromus tectorum)", "how_it_was_run": "as §1"}, "[4]": {"system": "bermudagrass (Cynodon dactylon)", "how_it_was_run": "as §1"}, "[5]": {"system": "black mustard (Brassica nigra)", "how_it_was_run": "as §1"}, "[6]": {"system": "southern sandbur (Cenchrus echinatus)", "how_it_was_run": "as §1"}, "[7]": {"system": "guineagrass (Panicum maximum)", "how_it_was_run": "as §1"}, "[8]": {"system": "prickly sida (Sida spinosa)", "how_it_was_run": "as §1"}, "[9]": {"system": "Italian ryegrass (Lolium multiflorum)", "how_it_was_run": "as §1"}, "[10]": {"system": "barnyardgrass (Echinochloa crus-galli)", "how_it_was_run": "as §1"}, "[11]": {"system": "green foxtail (Setaria viridis)", "how_it_was_run": "as §1"}, "[12]": {"system": "annual bluegrass (Poa annua)", "how_it_was_run": "as §1"}, "[13]": {"system": "common ragweed (Ambrosia elatior)", "how_it_was_run": "as §1"}, "[14]": {"system": "field bindweed (Convolvulus arvensis)", "how_it_was_run": "as §1"}},
  "data": [
    {"molecule": "CCOC(=O)c1nc(C2CC2)nc(N)c1Cl", "note": "[Compound 4, ethyl 6-amino-5-chloro-2-cyclopropyl-4-pyrimidinecarboxylate]", "values": [
      {"measurement": "Plant response rating, Chickweed", "setting": "[1]; 62 g ai/ha, scale 0-100", "result": 100},
      {"measurement": "Plant response rating, Chickweed", "setting": "[1]; 125 g ai/ha, scale 0-100", "result": 100},
      {"measurement": "Plant response rating, Chickweed", "setting": "[1]; 250 g ai/ha, scale 0-100", "result": 100},
      {"measurement": "Plant response rating, Chickweed", "setting": "[1]; 500 g ai/ha, scale 0 to 100", "result": 100},
      {"measurement": "Plant response rating, Surinam Grass", "setting": "[2]; 62 g ai/ha, scale 0-100", "result": 30},
      {"measurement": "Plant response rating, Surinam Grass", "setting": "[2]; 125 g ai/ha, scale 0-100", "result": 60},
      {"measurement": "Plant response rating, Surinam Grass", "setting": "[2]; 250 g ai/ha, scale 0-100", "result": 80},
      {"measurement": "Plant response rating, Surinam Grass", "setting": "[2]; 500 g ai/ha, scale 0 to 100", "result": 95},
      {"measurement": "Plant response rating, Bromegrass, Downy", "setting": "[3]; 62 g ai/ha, scale 0-100", "result": 30},
      {"measurement": "Plant response rating, Bromegrass, Downy", "setting": "[3]; 125 g ai/ha, scale 0-100", "result": 70},
      {"measurement": "Plant response rating, Bromegrass, Downy", "setting": "[3]; 250 g ai/ha, scale 0-100", "result": 100},
      {"measurement": "Plant response rating, Bromegrass, Downy", "setting": "[3]; 500 g ai/ha, scale 0 to 100", "result": 100},
      {"measurement": "Plant response rating, Bermudagrass", "setting": "[4]; 62 g ai/ha, scale 0-100", "result": 20},
      {"measurement": "Plant response rating, Bermudagrass", "setting": "[4]; 125 g ai/ha, scale 0-100", "result": 90},
      {"measurement": "Plant response rating, Bermudagrass", "setting": "[4]; 250 g ai/ha, scale 0-100", "result": 95},
      {"measurement": "Plant response rating, Bermudagrass", "setting": "[4]; 500 g ai/ha, scale 0 to 100", "result": 100},
      {"measurement": "Plant response rating, Black Mustard", "setting": "[5]; 62 g ai/ha, scale 0-100", "result": 95},
      {"measurement": "Plant response rating, Black Mustard", "setting": "[5]; 125 g ai/ha, scale 0-100", "result": 95},
      {"measurement": "Plant response rating, Black Mustard", "setting": "[5]; 250 g ai/ha, scale 0-100", "result": 100},
      {"measurement": "Plant response rating, Black Mustard", "setting": "[5]; 500 g ai/ha, scale 0 to 100", "result": 100},
      {"measurement": "Plant response rating, Sandbur", "setting": "[6]; 62 g ai/ha, scale 0-100", "result": 30},
      {"measurement": "Plant response rating, Sandbur", "setting": "[6]; 125 g ai/ha, scale 0-100", "result": 80},
      {"measurement": "Plant response rating, Sandbur", "setting": "[6]; 250 g ai/ha, scale 0-100", "result": 90},
      {"measurement": "Plant response rating, Sandbur", "setting": "[6]; 500 g ai/ha, scale 0 to 100", "result": 100},
      {"measurement": "Plant response rating, Guineagrass", "setting": "[7]; 62 g ai/ha, scale 0-100", "result": 95},
      {"measurement": "Plant response rating, Guineagrass", "setting": "[7]; 125 g ai/ha, scale 0-100", "result": 95},
      {"measurement": "Plant response rating, Guineagrass", "setting": "[7]; 250 g ai/ha, scale 0-100", "result": 100},
      {"measurement": "Plant response rating, Guineagrass", "setting": "[7]; 500 g ai/ha, scale 0 to 100", "result": 100},
      {"measurement": "Plant response rating, Prickly Sida", "setting": "[8]; 62 g ai/ha, scale 0-100", "result": 85},
      {"measurement": "Plant response rating, Prickly Sida", "setting": "[8]; 125 g ai/ha, scale 0-100", "result": 100},
      {"measurement": "Plant response rating, Prickly Sida", "setting": "[8]; 250 g ai/ha, scale 0-100", "result": 100},
      {"measurement": "Plant response rating, Prickly Sida", "setting": "[8]; 500 g ai/ha, scale 0 to 100", "result": 100},
      {"measurement": "Plant response rating, Ryegrass, Italian", "setting": "[9]; 62 g ai/ha, scale 0-100", "result": 30},
      {"measurement": "Plant response rating, Ryegrass, Italian", "setting": "[9]; 125 g ai/ha, scale 0-100", "result": 60},
      {"measurement": "Plant response rating, Ryegrass, Italian", "setting": "[9]; 250 g ai/ha, scale 0-100", "result": 100},
      {"measurement": "Plant response rating, Ryegrass, Italian", "setting": "[9]; 500 g ai/ha, scale 0 to 100", "result": 100},
      {"measurement": "Plant response rating, Barnyardgrass", "setting": "[10]; 62 g ai/ha, scale 0-100", "result": 50},
      {"measurement": "Plant response rating, Barnyardgrass", "setting": "[10]; 125 g ai/ha, scale 0-100", "result": 70},
      {"measurement": "Plant response rating, Barnyardgrass", "setting": "[10]; 250 g ai/ha, scale 0-100", "result": 80},
      {"measurement": "Plant response rating, Barnyardgrass", "setting": "[10]; 500 g ai/ha, scale 0 to 100", "result": 100},
      {"measurement": "Plant response rating, Foxtail, Green", "setting": "[11]; 62 g ai/ha, scale 0-100", "result": 20},
      {"measurement": "Plant response rating, Foxtail, Green", "setting": "[11]; 125 g ai/ha, scale 0-100", "result": 70},
      {"measurement": "Plant response rating, Foxtail, Green", "setting": "[11]; 250 g ai/ha, scale 0-100", "result": 100},
      {"measurement": "Plant response rating, Foxtail, Green", "setting": "[11]; 500 g ai/ha, scale 0 to 100", "result": 100},
      {"measurement": "Plant response rating, Bluegrass", "setting": "[12]; 62 g ai/ha, scale 0-100", "result": 10},
      {"measurement": "Plant response rating, Bluegrass", "setting": "[12]; 125 g ai/ha, scale 0-100", "result": 60},
      {"measurement": "Plant response rating, Bluegrass", "setting": "[12]; 250 g ai/ha, scale 0-100", "result": 80},
      {"measurement": "Plant response rating, Bluegrass", "setting": "[12]; 500 g ai/ha, scale 0 to 100", "result": 100},
      {"measurement": "Plant response rating, Ragweed", "setting": "[13]; 62 g ai/ha, scale 0-100", "result": 80},
      {"measurement": "Plant response rating, Ragweed", "setting": "[13]; 125 g ai/ha, scale 0-100", "result": 100},
      {"measurement": "Plant response rating, Ragweed", "setting": "[13]; 250 g ai/ha, scale 0-100", "result": 100},
      {"measurement": "Plant response rating, Ragweed", "setting": "[13]; 500 g ai/ha, scale 0 to 100", "result": 100},
      {"measurement": "Plant response rating, Bindweed, Field", "setting": "[14]; 62 g ai/ha, scale 0-100", "result": 100},
      {"measurement": "Plant response rating, Bindweed, Field", "setting": "[14]; 125 g ai/ha, scale 0-100", "result": 100},
      {"measurement": "Plant response rating, Bindweed, Field", "setting": "[14]; 250 g ai/ha, scale 0-100", "result": 100},
      {"measurement": "Plant response rating, Bindweed, Field", "setting": "[14]; 500 g ai/ha, scale 0 to 100", "result": 100}
    ]}
  ]
}
